According to patent US10251392B2, “Antimicrobial devices and compositions” (Avent, Inc., priority 2004, dated 2019):

Assay: Light stability (discoloration by light exposure)
Assay type: physicochemical
Conditions: ambient / room light
Experimental: The term “light stable” in the present context is meant to indicate either of two conditions; (i) no visible change in the color of the compositions of patient and wound care products after 24 hour exposure to light conditions typically encountered indoors in hospital, offices, or home that are normally used to aid visibility.

- light sensitivity of the solid powder: remained unchanged
SMILES: [Ag+].c1ccc2[n-]cnc2c1 [silver benzimidazole complex]
